Measured values as given in patent US8030498B2, “Benzoylpyrazole compounds and herbicides containing them” (Ishihara Sangyo Kaisha, Ltd., priority 2005, dated 2011).

Key:
[1] = system: crabgrass; experiment: Test Example 2: soil application on the day after sowing, growth inhibition rate, crabgrass; assay type: in vivo, Digitaria sanguinalis L.; details: 250 g/ha active ingredient, observed on 19th to 24th day
Text: (§1) Upland field soil was put into a 1/170,000 hectare pot, and seeds of various plants (barnyardgrass, crabgrass, greenfoxtail, redroot pigweed, prickly sida, velvetleaf, rice, wheat, corn and soybean) were sown. On the day after sowing, wettable powders or emulsifiable concentrates of the compounds of the present invention prepared in accordance with a conventional preparation method, were weighed so that the active ingredients became the prescribed amounts, and diluted with water in an amount corresponding to 500 liter per 1 hectare, followed by soil application with a small sprayer. On the 19th to 24th day after the application, the state of growth of the respective plants was visually observed, and the herbicidal effect was evaluated in accordance with a growth inhibition rate (%) of from 0 (equivalent to the non-treated area) to 100% (complete kill).

[2] = system: greenfoxtail; experiment: Test Example 2: soil application on the day after sowing, growth inhibition rate, greenfoxtail; assay type: in vivo, Setaria viridis L.; details: 250 g/ha active ingredient, observed on 19th to 24th day
Text: as §1

[3] = system: prickly sida; experiment: Test Example 2: soil application on the day after sowing, growth inhibition rate, prickly sida; assay type: in vivo, Sida spinosa L.; details: 250 g/ha active ingredient, observed on 19th to 24th day
Text: as §1

[4] = system: greenfoxtail (Setaria viridis L.); experiment: Test Example 1: foliar treatment, growth inhibition rate, greenfoxtail; assay type: in vivo; details: 31 g/ha active ingredient, visually observed 17th to 23rd day after application
Text: (§2) Upland field soil was put into a 1/170,000 hectare pot, and seeds of various plants were sown. When the respective plants reached predetermined leaf stage ((1) barnyardgrass (Echinochloa crus-galli L.); 0.8 to 2.5 leaf stage, (2) crabgrass (Digitaria sanguinalis L.): 0.5 to 3.0 leaf stage, (3) greenfoxtail (Setaria viridis L.): 1.0 to 3.0 leaf stage, (4) redroot pigweed (Amaranthus retroflexus L.): cotyledon stage to 2.0 leaf stage, (5) prickly sida (Sida spinosa L.): cotyledon stage to 1.1 leaf stage, (6) velvetleaf (Abutilon theophrasti MEDIC.): cotyledon stage to 1.5 leaf stage, (7) rice (Oryza sativa L.): 1.0 to 2.5 leaf stage, (8) wheat (Triticum spp.): 1.7 to 3.4 leaf stage, (9) corn (Zea mays L.): 2.0 to 3.5 leaf stage, and (10) soybean (Glycine max Merr.): primary leaf stage to 0.3 leaf stage), wettable powders or emulsifiable concentrates of the compounds of the present invention prepared in accordance with a conventional preparation method, were weighed so that the active ingredients became the prescribed amounts, and diluted with water in an amount corresponding to 500 liter per 1 hectare. 0.1 vol % of an agricultural spreader was further added to the respective diluted liquids, followed by foliar treatment with a small sprayer.
(§3) On the 17th to 23rd day after application, the state of growth of the respective plants was visually observed, and the herbicidal effect was evaluated in accordance with a growth inhibition rate (%) of 0 (equivalent to the non-treated area) to 100% (complete kill).

[5] = system: velvetleaf (Abutilon theophrasti MEDIC.); experiment: Test Example 1: foliar treatment, growth inhibition rate, velvetleaf; assay type: in vivo; details: 31 g/ha active ingredient, visually observed 17th to 23rd day after application
Text: as §2, §3

[6] = system: barnyardgrass; experiment: Test Example 2: soil application on the day after sowing, growth inhibition rate, barnyardgrass; assay type: in vivo, Echinochloa crus-galli L.; details: 250 g/ha active ingredient, observed on 19th to 24th day
Text: as §1

[7] = system: rice (Oryza sativa L.); experiment: Test Example 1: foliar treatment, growth inhibition rate, rice; assay type: in vivo; details: 31 g/ha active ingredient, visually observed 17th to 23rd day after application
Text: as §2, §3

[8] = system: soybean (Glycine max Merr.); experiment: Test Example 1: foliar treatment, growth inhibition rate, soybean; assay type: in vivo; details: 31 g/ha active ingredient, visually observed 17th to 23rd day after application
Text: as §2, §3

[9] = system: soybean; experiment: Test Example 2: soil application on the day after sowing, growth inhibition rate, soybean; assay type: in vivo, Glycine max Merr.; details: 250 g/ha active ingredient, observed on 19th to 24th day
Text: as §1

[10] = system: redroot pigweed; experiment: Test Example 2: soil application on the day after sowing, growth inhibition rate, redroot pigweed; assay type: in vivo, Amaranthus retroflexus L.; details: 250 g/ha active ingredient, observed on 19th to 24th day
Text: as §1

[11] = system: wheat (Triticum spp.); experiment: Test Example 1: foliar treatment, growth inhibition rate, wheat; assay type: in vivo; details: 31 g/ha active ingredient, visually observed 17th to 23rd day after application
Text: as §2, §3

[12] = system: barnyardgrass (Echinochloa crus-galli L.); experiment: Test Example 1: foliar treatment, growth inhibition rate, barnyardgrass; assay type: in vivo; details: 31 g/ha active ingredient, visually observed 17th to 23rd day after application
Text: as §2, §3

[13] = system: corn (Zea mays L.); experiment: Test Example 1: foliar treatment, growth inhibition rate, corn; assay type: in vivo; details: 31 g/ha active ingredient, visually observed 17th to 23rd day after application
Text: as §2, §3

[14] = system: corn; experiment: Test Example 2: soil application on the day after sowing, growth inhibition rate, corn; assay type: in vivo, Zea mays L.; details: 250 g/ha active ingredient, observed on 19th to 24th day
Text: as §1

[15] = system: prickly sida (Sida spinosa L.); experiment: Test Example 1: foliar treatment, growth inhibition rate, prickly sida; assay type: in vivo; details: 31 g/ha active ingredient, visually observed 17th to 23rd day after application
Text: as §2, §3

[16] = system: rice; experiment: Test Example 2: soil application on the day after sowing, growth inhibition rate, rice; assay type: in vivo, Oryza sativa L.; details: 250 g/ha active ingredient, observed on 19th to 24th day
Text: as §1

[17] = system: velvetleaf; experiment: Test Example 2: soil application on the day after sowing, growth inhibition rate, velvetleaf; assay type: in vivo, Abutilon theophrasti MEDIC.; details: 250 g/ha active ingredient, observed on 19th to 24th day
Text: as §1

[18] = system: crabgrass (Digitaria sanguinalis L.); experiment: Test Example 1: foliar treatment, growth inhibition rate, crabgrass; assay type: in vivo; details: 31 g/ha active ingredient, visually observed 17th to 23rd day after application
Text: as §2, §3

[19] = system: redroot pigweed (Amaranthus retroflexus L.); experiment: Test Example 1: foliar treatment, growth inhibition rate, redroot pigweed; assay type: in vivo; details: 31 g/ha active ingredient, visually observed 17th to 23rd day after application
Text: as §2, §3

| Structure (SMILES) | Growth inhibition rate (%) Crabgrass [1] [%] | Growth inhibition rate (%) Greenfoxtail [2] [%] | Growth inhibition rate (%) Prickly sida [3] [%] | Growth inhibition rate (%) Greenfoxtail [4] [%] | Growth inhibition rate (%) Velvetleaf [5] [%] | Growth inhibition rate (%) Barnyardgrass [6] [%] | Growth inhibition rate (%) Rice [7] [%] | Growth inhibition rate (%) Soybean [8] [%] | Growth inhibition rate (%) Soybean [9] [%] | Growth inhibition rate (%) redroot pigweed [10] [%] | Growth inhibition rate (%) Wheat [11] [%] | Growth inhibition rate (%) Barnyardgrass [12] [%] | Growth inhibition rate (%) Corn [13] [%] | Growth inhibition rate (%) Corn [14] [%] | Growth inhibition rate (%) Prickly sida [15] [%] | Growth inhibition rate (%) Rice [16] [%] | Growth inhibition rate (%) Velvetleaf [17] [%] | Growth inhibition rate (%) Crabgrass [18] [%] | Growth inhibition rate (%) redroot pigweed [19] [%] |
| --- | --- | --- | --- | --- | --- | --- | --- | --- | --- | --- | --- | --- | --- | --- | --- | --- | --- | --- | --- |
| COCCOc1c(S(C)(=O)=O)ccc(C(=O)c2cnn(C)c2OC(=O)SC)c1C [compound 233] | 100 | 100 | 40 | 100 | 100 | 100 | 80 | 100 | 50 | 100 | 0 | 100 | 0 | 0 | 60 | 100 | 100 | 100 | – |
| CCn1ncc(C(=O)c2ccc(S(C)(=O)=O)c(OCCOC)c2C)c1OC(=O)SC [compound 234] | 100 | 100 | 20 | 100 | 100 | 100 | 90 | 100 | 0 | 100 | 0 | 100 | 0 | 0 | 50 | 100 | 70 | 100 | 100 |
| CCOCc1c(S(C)(=O)=O)ccc(C(=O)c2cnn(C)c2OC(=O)SCC)c1C [compound 73] | 100 | – | – | 100 | 98 | – | 95 | 98 | – | 100 | 0 | 100 | 30 | 0 | 70 | – | 100 | 100 | 100 |
| CCSC(=O)Oc1c(C(=O)c2ccc(S(C)(=O)=O)c(COCCOC)c2C)cnn1C [compound 76] | 100 | – | – | 80 | 75 | – | 60 | 95 | – | 90 | 0 | 98 | 30 | 0 | 65 | – | 30 | 98 | 90 |
| CCSC(=O)Oc1c(C(=O)c2ccc(S(C)(=O)=O)c(OCC(C)OC)c2C)cnn1C (centres unmarked) [compound 189] | 100 | 100 | 100 | 98 | 100 | 100 | 90 | 98 | 10 | 100 | – | 95 | 0 | 0 | 70 | 100 | 100 | 95 | – |
| CCSC(=O)Oc1c(C(=O)c2ccc(S(C)(=O)=O)c(CCOC)c2C)cnn1C [compound 75] | 100 | – | – | 100 | 100 | – | 98 | 98 | – | 100 | 0 | 98 | 40 | 10 | 100 | – | 80 | 100 | 100 |
| CCSC(=O)Oc1c(C(=O)c2ccc(S(C)(=O)=O)c(CS(C)(=O)=O)c2C)cnn1C [compound 72] | 0 | – | – | 70 | 60 | – | 50 | 70 | – | 50 | 0 | 80 | 10 | 0 | 60 | – | 30 | 50 | 60 |
